Source: article PMC5088614 (PeerJ, 2016)
In brackets after ≈: the same amount, converted by molar mass. Several values for one entry are separate records, joined by “and”; a condition that tells them apart may be missing. Identical values can stand only once. Entries after “also recorded” stand apart in the source; their conditions may differ. Like-named read-outs stand apart in the source and are kept apart here. Positions of bridges follow the written chain, without caps; N, C: chain ends. Residues, ends and D or L forms follow the SMILES beside them.

Experiments:
[1] = test system: E. coli; type: cell-based, Escherichia coli
[2] = test system: B. pseudomallei isolates; type: cell-based, Burkholderia pseudomallei
[3] = test system: B. pseudomallei K96243 biofilm; type: cell-based, Burkholderia pseudomallei; parameters: Mean Diff., Untreated vs treated, Dunnett's Multiple Comparison Test (data for figure 2): unit not given here
[4] = test system: B. pseudomallei strains used in the preliminary study; type: cell-based, Burkholderia pseudomallei
[5] = test system: E.coli ATCC 25922; type: cell-based, Escherichia coli
[6] = test system: human gastric adenocarcinoma (AGS) cells
[7] = test system: human lung epithelial (A549) cells
[8] = test system: B. pseudomallei strain K96243; type: cell-based, Burkholderia pseudomallei
[9] = test system: B. pseudomallei strain K96243 and clinical strains UMC031, UMC080, UMC089; details: for MIC, B. pseudomallei (average): 24 h
[10] = test system: B. pseudomallei K96243; type: cell-based, Burkholderia pseudomallei
[11] = test system: Escherichia coli (ATCC 29522)
[12] = test system: human hepatocellular carcinoma (HepG2) cells
[13] = test system: A549, HEPG2 and AGS cells
[14] = test system: human hepatocellular carcinoma (HepG2) cells; details: cited from earlier work
[15] = test system: human lung epithelial (A549) cells; details: cited from earlier work
[16] = test system: human gastric adenocarcinoma (AGS) cells; details: cited from earlier work
[17] = test system: B. pseudomallei biofilm; details: cited from earlier work

GIGKFLHSAKKFGKAFVGEIMNS [Magainin 2]
Susceptibility of strain to AMP (S/R), preliminary study [1]: S | Susceptibility of strain to AMP (S/R), preliminary study [2]: R | Mean Diff., Untreated vs treated, Dunnett's Multiple Comparison Test (data for figure 2) [3]: 0.2494

GFKLKGMARISCLPNGQWSNFPPKCIRECA [Sushi 1]
Susceptibility of strain to AMP (S/R), preliminary study [1]: S | Susceptibility of strain to AMP (S/R), preliminary study [2]: R | Mean Diff., Untreated vs treated, Dunnett's Multiple Comparison Test (data for figure 2) [3]: 0.04572

CN(C)c1cc(NC(=O)CNC(C)(C)C)c(O)c2c1C[C@H]1C[C@H]3[C@H](N(C)C)C(O)=C(C(N)=O)C(=O)[C@@]3(O)C(O)=C1C2=O [TGC]
Antibiotic susceptibility by disk diffusion [4]: R and S

O=C(O)c1cn(C2CC2)c2cc(N3CCNCC3)c(F)cc2c1=O [CIP]
Antibiotic susceptibility by disk diffusion [5]: S

CC[C@H](C)[C@@H]1NC(=O)CNC(=O)[C@H](CCCNC(=N)N)NC(=O)[C@H](Cc2ccc(O)cc2)NC(=O)[C@@H]2CSSC[C@H](NC1=O)C(=O)N[C@@H](Cc1ccc(O)cc1)C(=O)N[C@@H](CCCNC(=N)N)C(=O)N[C@@H](CCCNC(=N)N)C(=O)N[C@H](C(=O)N[C@@H](CCCNC(=N)N)C(N)=O)CSSC[C@H](NC(=O)[C@H](Cc1c[nH]c3ccccc13)NC(=O)[C@@H](N)CCCCN)C(=O)N[C@@H](Cc1ccccc1)C(=O)N[C@@H](CCCNC(=N)N)C(=O)N[C@@H](C(C)C)C(=O)N2 [TP1, Tachyplesin 1] (H-KWCFRVCYRGICYRRCR-NH2; disulfide 3-16, 7-12)
Susceptibility of strain to AMP (S/R), preliminary study [1]: S | MTT, mean over the lower concentrations [6]: 87.0414 | percentage of viable cells, AGS ([6]; 2 h, 2.7 μM): 85.1% | percentage of viable cells, AGS ([6]; 2 h, 48.6 μM): 80% | percentage of viable cells, AGS ([6]; 24 h, 22.3 μM): 90.0 ± 8.4% | B. pseudomallei isolates susceptible to the AMP [2]: 83% | Susceptibility of strain to AMP (S/R), preliminary study [2]: S and R | MTT, mean over the lower concentrations [7]: 86.0736 | concentration inhibiting B. pseudomallei K96243 growth [8]: > 55 µM | time after exposure to growth inhibition [8]: following eight hours of exposure | viable bacteria at 24 h [8]: 9.96 log CFU/ml | MBEC [3]: not achieved | Mean Diff., 0 vs concentration (Bonferroni's test) [3]: 4.116 and 4.208 | Mean Diff., Untreated vs treated, Dunnett's Multiple Comparison Test (data for figure 2) [3]: 3.641 | concentration of maximum inhibition of cells in biofilm state [3]: 442 µM | concentration reducing the number of B. pseudomallei in biofilm state [3]: above 55 μM | inhibition activity of TP1 higher than LL-37 [3]: approximately 2.0 log | inhibition activity of TP1 lower than PG1 [3]: 3.5 log | log reduction of bacteria in biofilm state [3]: 1.0 log and 1.3 log | reduction of surviving bacteria in biofilm state compared to the untreated (significance) [3]: significant reduction | surviving bacteria in biofilm state [3]: ~4.00 log CFU/biofilm | surviving bacteria in biofilm state 24 h post exposure [3]: 4.2 log CFU/biofilm | surviving bacteria in biofilm state at the end of the TP1 concentration series ([3]; 24 h): 3.6 log CFU/biofilm | MBC, B. pseudomallei (average) ([9]; 37 °C 24 h): 193.35 ± 2.00E-14 μM | MIC, B. pseudomallei (average) [9]: 61.69 ± 6.38 µM (≈ 140 µg/mL) | cell morphology by SEM [10]: membrane blebbing; also recorded: corrugated with dimples on the surface | MBC, E.coli (ATCC 29522) ([11]; ATCC 29522, 24 h): 22.1 ± 0 µM (≈ 50 µg/mL) | MIC, E.coli (ATCC 29522) ([11]; ATCC 29522, 24 h): 22.1 ± 0 µM (≈ 50 µg/mL) | MTT, mean over the lower concentrations [12]: 91.041

C[C@@H](O)[C@H]1C(=O)N2C(C(=O)O)=C(SCCN=CN)C[C@H]12 [IMI]
Antibiotic susceptibility by disk diffusion [5]: S | Antibiotic susceptibility by disk diffusion [4]: S

CC(C)C[C@H](NC(=O)[C@H](CCCNC(=N)N)NC(=O)CNC(=O)CNC(=O)[C@@H](N)CCCNC(=N)N)C(=O)N[C@H]1CSSC[C@@H](C(=O)N[C@H](C(=O)NCC(=O)N[C@@H](CCCNC(=N)N)C(N)=O)C(C)C)NC(=O)[C@H](C(C)C)NC(=O)[C@@H]2CSSC[C@H](NC(=O)[C@H](Cc3ccc(O)cc3)NC1=O)C(=O)N[C@@H](CCCNC(=N)N)C(=O)N[C@@H](CCCNC(=N)N)C(=O)N[C@@H](CCCNC(=N)N)C(=O)N[C@@H](Cc1ccccc1)C(=O)N2 [PG1, Protegrin 1]
Susceptibility of strain to AMP (S/R), preliminary study [1]: S | percentage of viable cells, AGS ([6]; 2 h, 115 μM): 3.0% | B. pseudomallei isolates susceptible to the AMP [2]: 100% | Mean Diff., 0 vs comparator, Dunnett's Multiple Comparison Test (MTT) [13]: 96.14 | percentage of viable cells, A549 ([7]; 2 h, 115 μM): 3.3% | cytotoxicity against Hep G2 [14]: cytotoxic | Mean Diff., Untreated vs treated, Dunnett's Multiple Comparison Test (data for figure 2) [3]: 6.743 | reduction of surviving bacteria in biofilm state compared to the untreated (significance) [3]: significant reduction | surviving bacteria in biofilm state 24 h post exposure [3]: 1.1 log CFU/biofilm | MIC, B. pseudomallei (average) [9]: 15.46 ± 5.02 µM (≈ 33.3 µg/mL) | MIC, E.coli (ATCC 29522) ([11]; 37 °C 24 h): 5.8 ± 1.09E-15 μM | percentage of viable cells, HEPG2 ([12]; 2 h, 115 μM): 5.0%

C[C@@H](O)[C@H]1C(=O)N2C(C(=O)O)=C(S[C@@H]3CN[C@H](C(=O)N(C)C)C3)[C@H](C)[C@H]12 [MRP, meropenem]
Antibiotic susceptibility by disk diffusion [5]: S | Mean Diff., 0 vs comparator, Dunnett's Multiple Comparison Test (MTT) [13]: 11.53 | Mean Diff., Untreated vs treated, Dunnett's Multiple Comparison Test (data for figure 2) [3]: 7.842 | reduction of surviving bacteria in biofilm state compared to the untreated (significance) [3]: significant reduction | inhibition of bacteria in biofilm state compared to untreated ([3]; 24 h): complete inhibition | Antibiotic susceptibility by disk diffusion [4]: S

CC[C@H](C)[C@H](NC(=O)[C@H](CCCCN)NC(=O)[C@H](CCC(=O)O)NC(=O)[C@H](CCCCN)NC(=O)[C@H](CO)NC(=O)[C@H](CCCCN)NC(=O)[C@H](CCCNC(=N)N)NC(=O)[C@H](Cc1ccccc1)NC(=O)[C@H](Cc1ccccc1)NC(=O)[C@H](CC(=O)O)NC(=O)CNC(=O)[C@H](CC(C)C)NC(=O)[C@@H](N)CC(C)C)C(=O)NCC(=O)N[C@@H](CCCCN)C(=O)N[C@@H](CCC(=O)O)C(=O)N[C@@H](Cc1ccccc1)C(=O)N[C@@H](CCCCN)C(=O)N[C@@H](CCCNC(=N)N)C(=O)N[C@H](C(=O)N[C@H](C(=O)N[C@@H](CCC(N)=O)C(=O)N[C@@H](CCCNC(=N)N)C(=O)N[C@H](C(=O)N[C@@H](CCCCN)C(=O)N[C@@H](CC(=O)O)C(=O)N[C@@H](Cc1ccccc1)C(=O)N[C@@H](CC(C)C)C(=O)N[C@@H](CCCNC(=N)N)C(=O)N[C@@H](CC(N)=O)C(=O)N[C@@H](CC(C)C)C(=O)N[C@H](C(=O)N1CCC[C@H]1C(=O)N[C@@H](CCCNC(=N)N)C(=O)N[C@H](C(=O)N[C@@H](CCC(=O)O)C(=O)N[C@@H](CO)C(=O)O)[C@@H](C)O)C(C)C)[C@@H](C)CC)C(C)C)[C@@H](C)CC [LL-37]
cytotoxicity to A549 [15]: cytotoxic | cytotoxicity to AGS [16]: cytotoxic | MBC, E.coli (ATCC 29522) ([11]; ATCC 29522, 24 h): 14.8 ± 6.42 µM (≈ 66.5 µg/mL) | MIC, E.coli (ATCC 29522) ([11]; ATCC 29522, 24 h): 14.8 ± 6.42 µM (≈ 66.5 µg/mL)

O=C(N[C@H](CO)[C@H](O)c1ccc([N+](=O)[O-])cc1)C(Cl)Cl [C]
Antibiotic susceptibility by disk diffusion [5]: S | Antibiotic susceptibility by disk diffusion [4]: S and R

C[C@H]1c2cccc(O)c2C(O)=C2C(=O)[C@]3(O)C(O)=C(C(N)=O)C(=O)[C@@H](N(C)C)[C@@H]3[C@@H](O)[C@@H]21 [DXT]
Antibiotic susceptibility by disk diffusion [5]: S | Antibiotic susceptibility by disk diffusion [4]: S

Ornithine
Susceptibility of strain to AMP (S/R), preliminary study [1]: S | Susceptibility of strain to AMP (S/R), preliminary study [2]: R

HAEHKVKIGVEQKYGQFPQGTEVTYTCSGNYFLM [Sushi 3]
Susceptibility of strain to AMP (S/R), preliminary study [1]: S | Susceptibility of strain to AMP (S/R), preliminary study [2]: R | Mean Diff., Untreated vs treated, Dunnett's Multiple Comparison Test (data for figure 2) [3]: 0.04165

CC(C)(O/N=C(\C(=O)N[C@@H]1C(=O)N2C(C(=O)[O-])=C(C[n+]3ccccc3)CS[C@H]12)c1csc(N)n1)C(=O)O [CAZ, ceftazidime]
Antibiotic susceptibility by disk diffusion [5]: S | concentration with anti-B. pseudomallei biofilm / biofilm inhibition activity [17]: 936 µM | Mean Diff., 0 vs comparator, Dunnett's Multiple Comparison Test (MTT) [13]: 13.7 | time after exposure to growth inhibition / bactericidal endpoint [8]: 8 h | Mean Diff., Untreated vs treated, Dunnett's Multiple Comparison Test (data for figure 2) [3]: 7.842 | reduction of surviving bacteria in biofilm state compared to the untreated (significance) [3]: significant reduction | inhibition of bacteria in biofilm state compared to untreated ([3]; 24 h): complete inhibition | Antibiotic susceptibility by disk diffusion [4]: R and S
